The results in this text go back to US11247976B2, “Synthetic ligands that modulate the activity of the RhlR quorum sensing receptor” (Wisconsin Alumni Research Foundation, priority 2016, dated 2022).

Read-outs that look alike come from different tables or passages of the source.

The target in experiment [1] is T1, RhlR (Pseudomonas aeruginosa, UniProt P54292).
T1 construct: expressed in transfected cells; host or cells: E. coli JLD271 (ΔsdiA) with pJN105R2 (arabinose-induced) and pSC11-rhlI*
Nature of the experiment: E. coli RhlR reporter agonism assay (JLD271/pJN105R2/pSC11-rhlI*). In kind it is cell-based, P. aeruginosa. The conditions noted are these: for activation at 10 µM: compound at 10 μM, RhlR activity relative to 1 mM BHL; for activation at 10 µM / RhlR agonist potency in words / RhlR agonist activity in words: E. coli reporter; for RhlR agonist potency in words: dose-response; for Emax: read-out: Maximum Activation (%); for RhlR agonist activity in words: single-concentration screen at 10 μM. As for the experimental part:
(§1) All media and reagents for bacterial culture were purchased from commercial sources. Bacteria were cultured in Luria-Bertani broth (LB) at 37° C. with shaking at 200 rpm unless otherwise noted. The bacterial reporter strains used for this study were (i) the heterologous E. coli strain JLD271 (ΔsdiA) harboring the RhlR expression plasmid pJN105R2 and the rhlI-lacZ transcriptional fusion reporter pSC11-rhlI*, (ii) the heterologous E. coli strain JLD271 (ΔsdiA) harboring the LasR expression plasmid pJN105L and the […] transcriptional fusion reporter pSC11, and (iii) the P. aeruginosa strain PAO-JP2 (ΔlasrhlI) harboring the rhlI-gfp transcriptional fusion reporter prhlI-LVAgfp. Reporter strains JLD271/pJN105R2/pSC11-rhlI* and JLD271/pJN105L/pSC11 were grown in LB containing 100 μg/mL ampicillin and 10 μg/mL gentamicin. Freezer stocks of bacterial strains were maintained at −80° C. in 1:1 LB:50% glycerol.
(§2) To evaluate the modulatory activities of library compounds on RhlR and LasR using E. coli reporters, the strains JLD271/pJN105R2/pSC11-rhlI* and JLD271/pJN105L/pSC11 were used, respectively, as previously described.^38, 51 The following modifications were used in the RhlR agonism reporter assay, non-native compounds (10 μM or 1 mM) were compared to 1 mM BHL as the positive control. Briefly, a subculture was prepared by diluting an overnight culture 1:10 with fresh media containing 100 μg/mL ampicillin and 10 μg/mL gentamicin, and was incubated until it had grown to OD600=0.45. In all assays, L-arabinose was added to a final concentration of 4 mg/mL to induce RhlR expression. For RhlR agonism assays, activities of test compounds were measured relative to 1 mM BHL (the concentration required to induce a maximal level of RhlR activity). For RhlR antagonism assays, test compounds were competed against a concentration of BHL approximately equal to its EC50 value (10 μM). Activity was measured relative to 10 μM BHL. Inhibition was calculated by subtracting 100% from the relative activity value. Thus, 0% inhibition mimics represents no competitive displacement of 10 μM BHL by a test compound. In all assays, modifications were made to the standard Miller assay protocol to accommodate the use of the chlorophenol red-β-D-galactopyranoside (CPRG) β-galactosidase substrate. After cell lysis, 150 μL of the aqueous layer was transferred from each well of a solvent-resistant 96-well microtiter plate to the wells of a new clear, flat-bottom 96-well microtiter plate. CPRG (4 mg/mL in phosphate-buffered saline) was added to each well in 25 μL volumes. Plates were incubated at 30° C. until the positive control wells developed a red color (approximately 30 min). The amount of processed CPRG substrate was assessed by measuring the absorbance of each well at 570 nm. Enzymatic activity was calculated using the following equation: adjusted Miller units=1000·Abs570/(OD600·t·V),
(§3) where t is the incubation time of substrate with lysate and V is the volume of culture lysed.
Because LuxR-type receptors are often unstable in solution, preventing the use of in vitro assays to directly assess small molecule agonism and antagonism, reporter gene assays represent a standard method for screening small-molecule libraries for LuxR-type receptor modulation. Previously reported strains for this purpose were used in the current study.^38 Synthetic N-butanoyl L-homoserine lactone (BHL), the native ligand of RhlR, was used as the positive control for receptor activation. Commonly, agonists are measured relative to maximum possible receptor activation within a particular assay medium;^40 because the dose-response curve of BHL is distinctly shallow in these RhlR reporters, a high concentration of BHL is required to maximally activate RhlR. In this study, activation of compounds was measured relative to that elicited by 1 mM BHL (the concentration of BHL used causes no aberrant growth effects in the reporter strain). […]

The target in experiment [2] is T1, RhlR. Nature of the experiment: E. coli RhlR reporter antagonism assay vs 10 μM BHL (JLD271/pJN105R2/pSC11-rhlI*). The format is cell-based, P. aeruginosa. The conditions noted are these: for inhibition at 10 µM: read-out: % inhibition (10 μM), compound at 10 μM in the presence of 10 μM BHL. How it is done:
as §1
as §2, with “For RhlR antagonism assays, test compounds were competed against a concentration of BHL approximately equal to its EC50 value (10 μM).” left out
as §3
The RhlR-modulatory activity of the J library compounds was assessed in a heterologous reporter strain (E. coli JLD271 harboring plasmids pJN105R2 and pSC11-rhlI*) in order to isolate the RhlR receptor from upstream QS regulation (e.g. regulation by LasR). Thus, the extent to which compounds were directly modulating RhlR could be determined. These assays were performed by incubating compound-treated, mid-log phase E. coli reporter cells in 96-well microtiter plates, followed by Miller assay evaluation of ß-galactosidase activity.
RhlR agonism and antagonism screens of each compound were performed initially at 10 μM.

The mark [3] stands for this setting: negative = agonism stronger than 10 μM BHL alone.
Setting [4] is: read-out: % inhibition (1 mM), compound at 1 mM in the presence of 10 μM BHL, negative = agonism stronger than 10 μM BHL alone.

T1 sequence (P54292 whole entry): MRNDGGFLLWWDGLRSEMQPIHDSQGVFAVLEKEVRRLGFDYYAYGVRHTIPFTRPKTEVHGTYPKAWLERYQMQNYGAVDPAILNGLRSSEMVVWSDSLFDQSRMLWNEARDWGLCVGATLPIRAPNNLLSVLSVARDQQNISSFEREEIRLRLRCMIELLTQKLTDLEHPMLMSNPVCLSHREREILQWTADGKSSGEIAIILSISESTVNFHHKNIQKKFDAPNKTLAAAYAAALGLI

By EC50 is commonly meant the concentration giving half of the maximal effect. The low end stands for an effect from little substance, the high end for a need for much substance. As for `CC(C)C(=O)N[C@H]1CCOC1=O` [Compound J17], in experiment [1], the EC50 is 4.89 µM, the activation at 10 µM amounted to 62%, the “RhlR agonist potency in words” value is listed as “significantly more potent than BHL” and the Emax was found to be 95%. Further, the “RhlR agonist activity in words” value in experiment [1] is on record as “comparable RhlR activation to that of BHL”. In experiment [2] (setting [3]), the inhibition at 10 µM is -30%. Also, the inhibition at 1000 µM in experiment [2] (setting [4]) was -112%.

With `CCC(CC)C(=O)N[C@H]1CCOC1=O` [Compound J22], the activation at 10 µM in experiment [1] turned out to be 28%. Moreover, in experiment [2] (setting [3]), the inhibition at 10 µM was 2%. Besides, in experiment [2] (setting [4]), the inhibition at 1000 µM was -66%.

`O=C(CC1CC1)N[C@H]1CCOC1=O` [Compound J25]: in experiment [1], it took 2.76 µM to reach a half-maximal effect (EC50), the activation at 10 µM turned out to be 70%, the “RhlR agonist potency in words” value is recorded as “significantly more potent than BHL” and the Emax is 95%. For the same molecule, the “RhlR agonist activity in words” value in experiment [1] was “strong”. Moreover, in experiment [2] (setting [3]), the inhibition at 10 µM was -47%. Besides, the inhibition at 1000 µM in experiment [2] (setting [4]) was -108%.

`CC1(C(=O)N[C@H]2CCOC2=O)CC1` [Compound J27, 1-methyl-cylclopropanoyl AHL]: in experiment [1], the activation at 10 µM amounted to 2% and the “RhlR agonist activity in words” value was “inactive”. Moreover, the “RhlR antagonist activity in words” value in experiment [2] (E. coli reporter vs 10 μM BHL) is reported as “capable of inhibiting RhlR activity to a statistically significant extent”. Moreover, the inhibition at 10 µM in experiment [2] (setting [3]) amounted to 2%. In experiment [2] (setting [4]), the inhibition at 1000 µM is 24%.

In the case of `CCC(=O)N[C@H]1CCOC1=O` [Compound C3-AHL], in experiment [1], the activation at 10 µM was determined as 25% and the “RhlR agonist activity in words” value is “comparably less active than their respective counterparts”. Further, the inhibition at 10 µM in experiment [2] (setting [3]) was -5%. Moreover, the inhibition at 1000 µM in experiment [2] (setting [4]) was -66%.

For `O=C(COc1ccc(I)cc1)NC1CCCC1` [RN17], the activation at 10 µM in experiment [1] was found to be 1%. Also, the “Maximum Inhibition (%)” value in experiment [2] (E. coli reporter, relative to activation of 10 μM BHL alone) is 31%. Moreover, in experiment [2] (setting [3]), the inhibition at 10 µM turned out to be 6%. The inhibition at 1000 µM in experiment [2] (read-out: % inhibition (1 mM), screened at a maximal concentration of 100 microM (solubility), in the presence of 10 μM BHL) was found to be 24%.

Regarding `C=CCC(=O)N[C@H]1CCOC1=O` [Compound J2], in experiment [1], the activation at 10 µM amounted to 39% and the “RhlR agonist activity in words” value is on record as “comparably less active than their respective counterparts”. In addition, in experiment [2] (setting [3]), the inhibition at 10 µM stood at 6%. For the same molecule, the inhibition at 1000 µM in experiment [2] (setting [4]) was -110%.

With `O=C(N[C@H]1CCOC1=O)C1CC1` [Compound J23], in experiment [1], the activation at 10 µM was 32% and the “RhlR agonist activity in words” value is “comparably less active than their respective counterparts”. In addition, the inhibition at 10 µM in experiment [2] (setting [3]) was -2%. Further, in experiment [2] (setting [4]), the inhibition at 1000 µM is -69%.

In experiment [1], `CCCS(=O)(=O)N[C@H]1CCOC1=O` [RN6] displayed an activation at 10 µM of 1%. Besides, the inhibition at 10 µM in experiment [2] (setting [3]) was 8%. Also, the inhibition at 1000 µM in experiment [2] (setting [4]) turned out to be 55%.

Take `CCC(C)(C)C(=O)N[C@H]1CCOC1=O` [Compound J21]: in experiment [1], the activation at 10 µM amounted to 5% and the “RhlR agonist activity in words” value was “inactive as agonists”. Further, in experiment [2] (setting [3]), the inhibition at 10 µM is 3%. For the same molecule, the inhibition at 1000 µM in experiment [2] (setting [4]) came to 7%.

Molecule `CCCC(=O)N[C@H]1CCNC1=O` [RN9] had an activation at 10 µM in experiment [1] of 1%. In addition, in experiment [2] (setting [3]), the inhibition at 10 µM was -1%. Besides, the inhibition at 1000 µM in experiment [2] (setting [4]) amounted to 35%.

As to `CCCCC(=O)N[C@H]1CCOC1=O` [Compound C5-AHL], in experiment [1], the EC50 is 10.8 µM, the activation at 10 µM turned out to be 53%, the Emax worked out at 80% and the “RhlR agonist activity in words” value is recorded as “comparable RhlR activation to that of BHL”. Further, the inhibition at 10 µM in experiment [2] (setting [3]) is -18%. Besides, the inhibition at 1000 µM in experiment [2] (setting [4]) was -91%.

Turning to `CCCC(=O)NCC1CCCN1` (stereo not shown) [RN11], the activation at 10 µM in experiment [1] was determined as 0%. The inhibition at 10 µM in experiment [2] (setting [3]) was -3%. The inhibition at 1000 µM in experiment [2] (setting [4]) is -1%.

`C/C=C/CC(=O)N[C@H]1CCOC1=O` [Compound J4] came in with an activation at 10 µM in experiment [1] of 21%. Further, the inhibition at 10 µM in experiment [2] (setting [3]) was 9%. For the same molecule, in experiment [2] (setting [4]), the inhibition at 1000 µM is -47%.

For the molecule `CCCC(=O)NCC1CCCO1` (stereo not shown) [RN10], the activation at 10 µM in experiment [1] came to 0%. Further, the inhibition at 10 µM in experiment [2] (setting [3]) worked out at 1%. In addition, the inhibition at 1000 µM in experiment [2] (setting [4]) stood at 57%.

Turning to `C#CCCC(=O)N[C@H]1CCOC1=O` [Compound J7], in experiment [1], the activation at 10 µM was determined as 45% and the “RhlR agonist activity in words” value is recorded as “activities statistically insignificant from native ligand BHL”. Further, the inhibition at 10 µM in experiment [2] (setting [3]) was -7%. In addition, in experiment [2] (setting [4]), the inhibition at 1000 µM is -83%.

With `CCC(C)C(=O)N[C@H]1CCOC1=O` (stereo partly shown) [Compound J19], in experiment [1], the EC50 is 7.77 µM, the activation at 10 µM was 55%, the Emax is 95% and the “RhlR agonist activity in words” value is recorded as “comparable RhlR activation to that of BHL”. Also, the inhibition at 10 µM in experiment [2] (setting [3]) was -24%. Besides, the inhibition at 1000 µM in experiment [2] (setting [4]) is -101%.

In the case of `C/C=C\CC(=O)N[C@H]1CCOC1=O` [Compound J5], in experiment [1], the EC50 worked out at 6.93 µM, the activation at 10 µM was 52%, the Emax came to 80% and the “RhlR agonist activity in words” value is “activities statistically insignificant from native ligand BHL”. In addition, the inhibition at 10 µM in experiment [2] (setting [3]) was -12%. Further, in experiment [2] (setting [4]), the inhibition at 1000 µM was -74%.

In the case of `CCCC(=O)NC1CCOC1` (stereo not shown) [RN2], in experiment [1], the activation at 10 µM amounted to 0%. Also, in experiment [2] (setting [3]), the inhibition at 10 µM was -5%. For the same molecule, the inhibition at 1000 µM in experiment [2] (setting [4]) is 20%.

For the molecule `CCCC(=O)N[C@@H]1CCOC1=O` [RN5], the activation at 10 µM in experiment [1] is 2%. The inhibition at 10 µM in experiment [2] (setting [3]) is 1%. In addition, the inhibition at 1000 µM in experiment [2] (setting [4]) is 11%.
